Experimental data from US9399017B2, “Peptide pharmaceutical for oral delivery” (Enteris BioPharma, Inc., priority 2007, dated 2016).

Key:
[1] = cited from earlier work
[2] = Plasma sCT Cmax in Beagle dogs after oral tablet (ELISA); assay type: in vivo; settings: for Cmax: Beagle, dog, plasma, po, 1.7 mg, oral tablet 1.7 mg sCT
Protocol: Following application of the indicated amounts of HPMC to the indicated weight gain (in those examples utilizing the undercoat), the tablets were then sealed with an enteric coat made of Eudragit L30D-55 to the indicated further weight gain. Beagle dogs were given a tablet of the indicated combination of undercoat-enteric coat and aliquots of blood were taken at 15 minute intervals for 4 hours. Plasma was separated from the blood samples and analyzed for sCT by ELISA.

For `CC(C)C[C@H](NC(=O)[C@H](CCCCN)NC(=O)CNC(=O)[C@H](CC(C)C)NC(=O)[C@@H](NC(=O)[C@@H]1CSSC[C@H](N)C(=O)N[C@@H](CO)C(=O)N[C@@H](CC(N)=O)C(=O)N[C@@H](CC(C)C)C(=O)N[C@@H](CO)C(=O)N[C@@H]([C@@H](C)O)C(=O)N1)C(C)C)C(=O)N[C@@H](CO)C(=O)N[C@@H](CCC(N)=O)C(=O)N[C@@H](CCC(=O)O)C(=O)N[C@@H](CC(C)C)C(=O)N[C@@H](Cc1c[nH]cn1)C(=O)N[C@@H](CCCCN)C(=O)N[C@@H](CC(C)C)C(=O)N[C@@H](CCC(N)=O)C(=O)N[C@H](C(=O)N[C@@H](Cc1ccc(O)cc1)C(=O)N1CCC[C@H]1C(=O)N[C@@H](CCCNC(=N)N)C(=O)N[C@H](C(=O)N[C@@H](CC(N)=O)C(=O)N[C@H](C(=O)NCC(=O)N[C@@H](CO)C(=O)NCC(=O)N[C@H](C(=O)N1CCC[C@H]1C(N)=O)[C@@H](C)O)[C@@H](C)O)[C@@H](C)O)[C@@H](C)O` [sCT, salmon calcitonin], the “time after injection beyond which there are usually no detectable blood levels” value ([1]; injection at conventional dosages) is listed as “more than two”, the “peak levels at which some patients report side-effects such as flushing nausea” value ([1]; patients) is listed as no less than 200 picograms per milliliter and the half-life ([1]; subcutaneous administration in man) is listed as 20 to 40 min. The peak serum concentration ([1]; subcutaneous administration, 100 International units) was “about 250 picograms per milliliter”, the Cmax ([2]; HPMC undercoat 0%, L30D-55 enteric coat 4% tablet weight gain) was 0.07 ng/mL and the Cmax ([2]; HPMC undercoat 0%, L30D-55 enteric coat 7% tablet weight gain) was 0.121 ng/mL. For the same compound, the Cmax ([2]; HPMC undercoat 3%, L30D-55 enteric coat 4% tablet weight gain) was 0.142 ng/mL, the Cmax ([2]; HPMC undercoat 3%, L30D-55 enteric coat 7% tablet weight gain) was 0.378 ng/mL and the Cmax ([2]; HPMC undercoat 6%, L30D-55 enteric coat 4% tablet weight gain) was 0.667 ng/mL. The Cmax ([2]; HPMC undercoat 6%, L30D-55 enteric coat 7% tablet weight gain) was 0.51 ng/mL, the “increase of sCT Cmax when amount of enteric coat was increased nearly 1.75 fold” value ([2]; absence of an undercoat) was 1.7 fold and the “increase of sCT Cmax when an HPMC undercoat was included” value ([2]; one embodiment) was “more than 9 fold”.
